Source: ChEMBL document CHEMBL5046254, “Mycobactin Analogues with Excellent Pharmacokinetic Profile Demonstrate Potent Antitubercular Specific Activity and Exceptional Efflux Pump Inhibition” (J Med Chem, 2022)
In brackets after ≈: the same amount, converted by molar mass.

Columns and labels:
[1] = tested on: Mycolicibacterium smegmatis; experiment: Antitubercular activity against Mycobacterium smegmatis mc2155 ATCC 700084 cultured in GAST media incubated for 24 hrs by resazurin microtiter assay; type: functional
[2] = tested on: Mycolicibacterium smegmatis; experiment: Antitubercular activity against Mycobacterium smegmatis mc2155 ATCC 700084 cultured in GAST-Fe media incubated for 24 hrs by resazurin microtiter assay; type: functional
[3] = tested on: Mycobacterium tuberculosis; experiment: microbe, parasite or virus in culture; conditions: H37Rv ATCC 27294, 192 h
[4] = tested on: Mycobacterium tuberculosis; experiment: microbe, parasite or virus in culture; conditions: H37Rv ATCC 27294, 192 h; remark: listed apart in the source
[5] = tested on: Mycolicibacterium aurum; experiment: Antimycobacterial activity against Mycobacterium aurum ATCC 10437 cultured in GAST media incubated for 72 hrs by resazurin microtiter assay; type: functional
[6] = tested on: Mycolicibacterium aurum; experiment: Antimycobacterial activity against Mycobacterium aurum ATCC 10437 cultured in GAST-Fe media incubated for 72 hrs by resazurin microtiter assay; type: functional

Q: Which MIC90 [1] does the source give for `Oc1ccc(C2CC(c3ccccc3O)=NN2)cc1` (stereo not given) here?
A: 32 µg/mL (≈ 126 µM)

Q: And the MIC90 [2]?
A: 64 µg/mL (≈ 252 µM)

Q: What about the MIC90 [3] of the same compound?
A: 128 µg/mL (≈ 503 µM)

Q: And the MIC90 [4]?
A: > 256 µg/mL

Q: For `Oc1ccccc1C1=NNC(c2ccccc2Br)C1` (stereo not given), which MIC90 [1] is on record?
A: 8 µg/mL (≈ 25.2 µM)

Q: And the MIC90 [2]?
A: 64 µg/mL (≈ 202 µM)

Q: And the MIC90 [3]?
A: 16 µg/mL (≈ 50.4 µM)

Q: What about the MIC90 [4] of the same compound?
A: 32 µg/mL (≈ 101 µM)

Q: How did the MIC90 [1] turn out when `Oc1ccccc1C1=NNC(c2ccccc2F)C1` (stereo not given) was run?
A: 8 µg/mL (≈ 31.2 µM)

Q: And the MIC90 [2]?
A: 64 µg/mL (≈ 250 µM)

Q: What about the MIC90 [3] of the same compound?
A: 16 µg/mL (≈ 62.4 µM)

Q: What about the MIC90 [4] of the same compound?
A: 64 µg/mL (≈ 250 µM)

Q: Which results are given for `CC(=O)N1N=C(c2ccccc2O)CC1c1ccc(Br)cc1` (stereo not given)?
A: MIC90 [1]: > 256 µg/mL; MIC90 [2]: > 256 µg/mL; MIC90 [3]: > 256 µg/mL; MIC90 [4]: > 256 µg/mL

Q: `COc1ccc(C2CC(c3ccccc3O)=NN2C(C)=O)cc1O` (stereo not given) was tested. Which MIC90 [1] did it give?
A: > 256 µg/mL

Q: And the MIC90 [2]?
A: > 256 µg/mL

Q: What about the MIC90 [3] of the same compound?
A: > 256 µg/mL

Q: What about the MIC90 [4] of the same compound?
A: > 256 µg/mL

Q: Which MIC90 [1] does the source give for `CC(=O)N1N=C(c2ccccc2O)CC1c1ccccc1C` (stereo not given) here?
A: > 256 µg/mL

Q: What about the MIC90 [2] of the same compound?
A: 256 µg/mL (≈ 870 µM)

Q: What about the MIC90 [3] of the same compound?
A: > 256 µg/mL

Q: And the MIC90 [4]?
A: > 256 µg/mL

Q: `COc1ccccc1C1CC(c2ccccc2O)=NN1C(N)=S` (stereo not given) was tested. Which MIC90 [1] did it give?
A: 256 µg/mL (≈ 782 µM)

Q: What about the MIC90 [2] of the same compound?
A: 256 µg/mL (≈ 782 µM)

Q: What about the MIC90 [3] of the same compound?
A: 16 µg/mL (≈ 48.9 µM)

Q: What about the MIC90 [4] of the same compound?
A: 16 µg/mL (≈ 48.9 µM)

Q: `NC(=S)N1N=C(c2ccccc2O)CC1c1ccccc1` (stereo not given) was tested. Which MIC90 [1] did it give?
A: 128 µg/mL (≈ 430 µM)

Q: And the MIC90 [2]?
A: 256 µg/mL (≈ 861 µM)

Q: What about the MIC90 [5] of the same compound?
A: 64 µg/mL (≈ 215 µM)

Q: And the MIC90 [6]?
A: 64 µg/mL (≈ 215 µM)

Q: What about the MIC90 [3] of the same compound?
A: 4 µg/mL (≈ 13.5 µM)

Q: What about the MIC90 [4] of the same compound?
A: 128 µg/mL (≈ 430 µM)

Q: How did the MIC90 [1] turn out when `NC(=S)N1N=C(c2ccccc2O)CC1c1ccccc1Cl` (stereo not given) was run?
A: 256 µg/mL (≈ 771 µM)

Q: And the MIC90 [2]?
A: 256 µg/mL (≈ 771 µM)

Q: And the MIC90 [3]?
A: 8 µg/mL (≈ 24.1 µM)

Q: And the MIC90 [4]?
A: 16 µg/mL (≈ 48.2 µM)

Q: With `Oc1cccc(C2CC(c3ccccc3O)=NN2)c1` (stereo not given) as the compound, how does the MIC90 [1] read?
A: 64 µg/mL (≈ 252 µM)

Q: And the MIC90 [2]?
A: 64 µg/mL (≈ 252 µM)

Q: What about the MIC90 [3] of the same compound?
A: 64 µg/mL (≈ 252 µM)

Q: What about the MIC90 [4] of the same compound?
A: > 256 µg/mL

Q: With `CC(=O)N1N=C(c2ccccc2O)CC1c1ccccc1Cl` (stereo not given) as the compound, how does the MIC90 [1] read?
A: > 256 µg/mL

Q: And the MIC90 [2]?
A: 256 µg/mL (≈ 813 µM)

Q: And the MIC90 [3]?
A: > 256 µg/mL

Q: What about the MIC90 [4] of the same compound?
A: > 256 µg/mL

Q: For `CO[C@H]1/C=C/O[C@@]2(C)Oc3c(C)c(O)c4c(O)c(c(/C=N/N5CCN(C)CC5)c(O)c4c3C2=O)NC(=O)/C(C)=C\C=C\[C@H](C)[C@H](O)[C@@H](C)[C@@H](O)[C@@H](C)[C@H](OC(C)=O)[C@@H]1C` [RIFAMPIN], which MIC90 [1] is on record?
A: 8 µg/mL (≈ 9.72 µM)

Q: What about the MIC90 [2] of the same compound?
A: 8 µg/mL (≈ 9.72 µM)

Q: What about the MIC90 [3] of the same compound?
A: 0.03 µg/mL (≈ 0.0365 µM)

Q: And the MIC90 [4]?
A: 0.005 µg/mL (≈ 0.00608 µM)

Q: How did the MIC90 [1] turn out when `NC(=S)N1N=C(c2ccccc2O)CC1c1cccc(Cl)c1` (stereo not given) was run?
A: 256 µg/mL (≈ 771 µM)

Q: And the MIC90 [2]?
A: 256 µg/mL (≈ 771 µM)

Q: And the MIC90 [3]?
A: 16 µg/mL (≈ 48.2 µM)

Q: What about the MIC90 [4] of the same compound?
A: 32 µg/mL (≈ 96.4 µM)

Q: Which MIC90 [1] does the source give for `Cc1ccccc1C1CC(c2ccccc2O)=NN1C(N)=S` (stereo not given) here?
A: 128 µg/mL (≈ 411 µM)

Q: What about the MIC90 [2] of the same compound?
A: > 256 µg/mL

Q: And the MIC90 [3]?
A: 16 µg/mL (≈ 51.4 µM)

Q: And the MIC90 [4]?
A: 16 µg/mL (≈ 51.4 µM)

Q: `COc1ccc(C2CC(c3ccccc3O)=NN2C(N)=S)cc1O` (stereo not given) was tested. Which MIC90 [1] did it give?
A: 128 µg/mL (≈ 373 µM)

Q: And the MIC90 [2]?
A: 128 µg/mL (≈ 373 µM)

Q: And the MIC90 [3]?
A: 8 µg/mL (≈ 23.3 µM)

Q: And the MIC90 [4]?
A: 16 µg/mL (≈ 46.6 µM)

Q: For `COc1ccccc1C1CC(c2ccccc2O)=NN1C(C)=O` (stereo not given), which MIC90 [1] is on record?
A: > 256 µg/mL

Q: And the MIC90 [2]?
A: > 256 µg/mL

Q: And the MIC90 [3]?
A: > 256 µg/mL

Q: What about the MIC90 [4] of the same compound?
A: > 256 µg/mL

Q: Which results are given for `COc1ccc(C2CC(c3ccccc3O)=NN2C(N)=S)cc1` (stereo not given)?
A: MIC90 [1]: 128 µg/mL (≈ 391 µM); MIC90 [2]: > 256 µg/mL; MIC90 [3]: 64 µg/mL (≈ 195 µM); MIC90 [4]: > 256 µg/mL

Q: How did the MIC90 [1] turn out when `Oc1ccccc1C1=NNC(c2ccccc2)C1` (stereo not given) was run?
A: 64 µg/mL (≈ 269 µM)

Q: And the MIC90 [2]?
A: 128 µg/mL (≈ 537 µM)

Q: What about the MIC90 [3] of the same compound?
A: 32 µg/mL (≈ 134 µM)

Q: What about the MIC90 [4] of the same compound?
A: 128 µg/mL (≈ 537 µM)

Q: Which results are given for `Cc1ccccc1C1CC(c2ccccc2O)=NN1` (stereo not given)?
A: MIC90 [1]: 16 µg/mL (≈ 63.4 µM); MIC90 [2]: 128 µg/mL (≈ 507 µM); MIC90 [3]: 16 µg/mL (≈ 63.4 µM); MIC90 [4]: 64 µg/mL (≈ 254 µM)

Q: `CC(=O)N1N=C(c2ccccc2O)CC1c1ccc(F)cc1` (stereo not given) was tested. Which MIC90 [1] did it give?
A: 128 µg/mL (≈ 429 µM)

Q: And the MIC90 [2]?
A: 128 µg/mL (≈ 429 µM)

Q: What about the MIC90 [3] of the same compound?
A: 128 µg/mL (≈ 429 µM)

Q: What about the MIC90 [4] of the same compound?
A: 256 µg/mL (≈ 858 µM)

Q: `COc1ccc(C2CC(c3ccccc3O)=NN2)cc1` (stereo not given) was tested. Which MIC90 [1] did it give?
A: 64 µg/mL (≈ 239 µM)

Q: What about the MIC90 [2] of the same compound?
A: 128 µg/mL (≈ 477 µM)

Q: What about the MIC90 [3] of the same compound?
A: 32 µg/mL (≈ 119 µM)

Q: And the MIC90 [4]?
A: 128 µg/mL (≈ 477 µM)

Q: What does the source list for `COc1cccc(C2CC(c3ccccc3O)=NN2C(C)=O)c1` (stereo not given)?
A: MIC90 [1]: > 256 µg/mL; MIC90 [2]: 256 µg/mL (≈ 825 µM); MIC90 [3]: > 256 µg/mL; MIC90 [4]: > 256 µg/mL

Q: How did the MIC90 [1] turn out when `NC(=S)N1N=C(c2ccccc2O)CC1c1ccc(O)cc1` (stereo not given) was run?
A: 256 µg/mL (≈ 817 µM)

Q: And the MIC90 [2]?
A: > 256 µg/mL

Q: And the MIC90 [5]?
A: 64 µg/mL (≈ 204 µM)

Q: What about the MIC90 [6] of the same compound?
A: 128 µg/mL (≈ 408 µM)

Q: And the MIC90 [3]?
A: 64 µg/mL (≈ 204 µM)

Q: What about the MIC90 [4] of the same compound?
A: 256 µg/mL (≈ 817 µM)

Q: How did the MIC90 [1] turn out when `Oc1ccccc1C1=NNC(c2ccccc2Cl)C1` (stereo not given) was run?
A: 8 µg/mL (≈ 29.3 µM)

Q: What about the MIC90 [2] of the same compound?
A: 64 µg/mL (≈ 235 µM)

Q: What about the MIC90 [3] of the same compound?
A: 16 µg/mL (≈ 58.7 µM)

Q: And the MIC90 [4]?
A: 32 µg/mL (≈ 117 µM)
